Consider three compounds from patent US20140051635A1, “COMBINATION THERAPY FOR TREATMENT OF CANCER” (UNIVERSITY OF SOUTH ALABAMA, priority 2011, published 2014).

Read-outs that look alike come from different tables or passages of the source.

The test system of data set [1] is SPARC expression in colon cancer cell lines and primary colon cancers. The conditions noted are these: colon cancer cell lines and primary colon cancers with SPARC promoter hypermethylation; cited from earlier work.
For data set [2] the following is noted: mice; cited from earlier work.
Another data set relates to higher-risk MDS. The conditions noted are these: cited from earlier work.
The test system of a further data set is MDS. To be noted: MDS patients; cited from earlier work.
For data set [3] the following is noted: parenteral, administered weekly; cited from earlier work.
The test system of data set [4] is advanced or metastatic solid tumors. The conditions noted are these: human, in vivo.
Description: Eligible patients include those with solid tumors that progressed or were stable as best response on at least one previous therapy. […] Further criteria included: female and male patients; age≧19 years; ECOG PS≦2; adequate bone marrow, liver and heart function; and signed written-informed consent.
Serum and/or tissue samples, where appropriate, were collected for correlative studies.
Outcome evaluation for primary endpoints included: type, incidence, severity, timing, seriousness, and relatedness of adverse events, and laboratory abnormalities; and objective response rate. Outcome evaluation for secondary endpoints included: progression-free survival (PFS); and expression of tissue SPARC protein. Statistical Analysis included the standard 3+3 design. Patients were accrued to each dose level in cohorts of up to 3-6. Escalation was continued until a dose limiting toxicity (DLT) was observed or the highest dose-level was reached. The best response, including complete response (CR), partial response (PR), stable disease (SD), or progression of disease (PD), for each patient was determined. Descriptive statistics were used to summarize all patient characteristics, treatment administration and compliance, and protein biomarkers. Safety data were determined for all patients receiving at least 1 dose of study treatment.
For data set [5] the following is noted: cited from earlier work.
The conditions of data set [6]: rats; cited from earlier work.
A further data set deals with AML. To be noted: 27 patients assigned to azacitidine; cited from earlier work.
Data set [7] relates to breast cancer, patients pre-treated with doxorubicin. The conditions noted are these: cited from earlier work.

As to `Nc1ncn([C@H]2C[C@H](O)[C@@H](CO)O2)c(=O)n1` [5Aza-dC], in [1], the SPARC expression entry is listed as “able to upregulate SPARC expression in most cases”.
On to `Nc1ncn([C@@H]2O[C@H](CO)[C@@H](O)[C@H]2O)c(=O)n1` [azacitidine], for which the “embryotoxicity and reproductive performance” value in data set [2] is “embryotoxic and reduced the reproductive performance”; in [6], “embryotoxic and reduced the reproductive performance”. Further, the median overall survival in the data set with higher-risk MDS (75 mg/m^2/day x 7 days in 28 day cycles, N=179) is 24.4 months. Besides, the two-year survival with higher-risk MDS (azacitidine arm) is listed as 51%. Besides, the figures for the tolerability result (with higher-risk MDS (in vivo); in data set [5] (75 mg/m^2 single SC injection or IV infusion over 10 minutes)) were “well tolerated” and “generally well-tolerated”, respectively. For the same compound, the partial remission result in the data set with MDS is “rare”. The maximum tolerated doses entry in data set [3] was “up to 500 mg/m^2”. The “maximum tolerated dose of azacitadine in this regimen” value in [4] was 75 mg/m^2. Besides, the “systemic IV clearance” value in data set [5] (75 mg/m^2 IV) is given as 147 L/h. For the same compound, the “bioavailability for the SC dose” value in data set [5] (75 mg/m^2 SC vs IV) is listed as around 89%. Besides, the median survival time with AML was 19.3 months.
On to `CC(=O)O[C@@]12CO[C@@H]1C[C@H](O)[C@@]1(C)C(=O)[C@H](O)C3=C(C)[C@@H](OC(=O)[C@H](O)[C@@H](NC(=O)OC(C)(C)C)c4ccccc4)C[C@@](O)([C@@H](OC(=O)c4ccccc4)[C@H]21)C3(C)C` [docetaxel], for which, in data set [7], the median overall survival is 11.4 months and the “median time to disease progression” value is on record as 4.4 months.
